From PMC7824787, “Design, Synthesis and In Vitro Investigation of Novel Basic Celastrol Carboxamides as Bio-Inspired Leishmanicidal Agents Endowed with Inhibitory Activity against Leishmania Hsp90” (Biomolecules, 2021)
Like-named read-outs stand apart in the source and are kept apart here.

Key:
L. tropica promastigotes = experiment: Antileishmanial activity on L. tropica promastigotes (MTT); type: cell-based
Procedure: (§1) Promastigote stage of L. infantum (MHOM/TN/80/IPT1, kindly provided by Dr. M. Gramiccia and Dr. T. Di Muccio, ISS, Roma) and L. tropica (MHOM/SY/2012/ISS3130) were cultured in RPMI 1640 medium (EuroClone) supplemented with 15% heat-inactivated fetal calf serum (EuroClone, Milan, Italy), 20 mM HEPES, and 2 mM L-glutamine at 23 °C. The MTT (3-[4.5-dimethylthiazol-2-yl]-2.5-diphenyltetrazolium bromide) method was used to estimate the 50% inhibitory concentration (IC50), with some modifications. Compounds were dissolved in DMSO and then diluted with medium to achieve the required concentrations. Test compounds were placed in 96 wells round bottom microplates and seven serial dilutions made. Amphotericin B was used as the reference antileishmanial drug. Parasites were diluted in complete medium to 5 × 10^6 parasites/mL and 100 μL of the suspension was seeded into the plates and incubated at 23 °C for 72 h. Then 20 μL of MTT solution (5 mg/mL) was added into each well, after 3 h the plates were centrifuged, the supernatants discarded and the resulting pellets dissolved in 100 μL of lysing buffer consisting of 20% (w/v) of a solution of SDS (Sigma), 40% of N,N-dimethylformamide (Merck) in H2O. The absorbance of the obtained solutions was measured at a wavelength of 550 nm with a reference at 650 nm with a microplate spectrophotometer (Synergy 4-Biotek, Milan, Italy) and analyzed with the Gen5® software for data processing.
(§2) The results are expressed as IC50, the dose of compound that is necessary to inhibit cell growth by 50%; each IC50 value is the mean ± standard deviation of at least three separate experiments performed in duplicate.

BMDM = experiment: Cytotoxicity on BMDM (MTT); type: cell-based, mouse; conditions: 72 h, read-out: Healthy Cell Lines IC50, BMDM
Procedure: (§3) Cytotoxicity was evaluated on human microvascular endothelial cells (HMEC-1, provided by the Centers for Disease Control, Atlanta, GA, USA), on immortalized mouse C57Bl/6 bone marrow derived macrophages (BMDM) from wild type lineage (generated in the laboratories of Drs. Douglas Golenbock and Kate Fitzgerald, University of Massachusetts, Worcester, MA, USA) and on a human acute monocytic leukaemia cell line (THP-1).
(§4) HMEC-1 were maintained in MCDB 131 medium (Invitrogen, Milan, Italy) supplemented with 10% fetal calf serum (HyClone), 10 ng/mL of epidermal growth factor, 1 μg/mL of hydrocortisone, 2 mM glutamine and 20 mM HEPES buffer, at 37 °C in 5% CO2. BMDM were maintained in DMEM (Euroclone) medium supplemented with 10% fetal bovine serum (HyClone, Celbio, Milan, Italy), 2 mM glutamine, and 25 mM of HEPES buffer solution (Euroclone). THP-1 were maintained in RPMI supplemented with 10% heat-inactivated FCS, 50 µM 2-mercaptoethanol, 10 µM sodium pyruvate, 20 mM HEPES, and 2 mM glutamine. In order to achieve differentiation into macrophages, cells were treated with 10 ng/mL phorbol myristate acetate (PMA) for 72 h.
(§5) For the cytotoxicity assay, cells were seeded in 96 well flat bottom tissue culture clusters (Costar, New York, NY, USA) at the following concentrations: HMEC 10^5 cell/mL, BMDM at 10^6 cell/mL, THP1 at 5 × 10^5 cell/mL. After 24 h, cells were treated with serial dilutions of test compounds in a final volume of 200 µL/well. Cell proliferation was evaluated after 72 h using the MTT assay.
(§6) The absorbances were measured with a microplate spectrophotometer (Synergy 4-Biotek) at a test wavelength of 550 nm and a reference wavelength of 650 nm. The results are expressed as IC50 as the concentration inhibiting 50% of cell growth. Each IC50 value is the mean and standard deviation of at least three separate experiments performed in duplicate.

THP-1 = experiment: Cytotoxicity on THP-1 (MTT); type: cell-based, human; conditions: read-out: Healthy Cell Lines IC50, THP-1
Procedure: as §3, §4, §5, §6

[1] = system: L. infantum promastigotes; experiment: Antileishmanial activity on L. infantum promastigotes (MTT); type: cell-based
Procedure: as §1, §2

LbHsp90 = LbHsp90 (Leishmania braziliensis, UniProt A4HL70); experiment: In vitro inhibition of the ATPase activity of LbHsp90 (Malachite Green Phosphate Assay); type: biochemical; conditions: 7 μM LbHsp90, 27 °C, 60 min
Sequence of LbHsp90 (A4HL70 entry or part of it): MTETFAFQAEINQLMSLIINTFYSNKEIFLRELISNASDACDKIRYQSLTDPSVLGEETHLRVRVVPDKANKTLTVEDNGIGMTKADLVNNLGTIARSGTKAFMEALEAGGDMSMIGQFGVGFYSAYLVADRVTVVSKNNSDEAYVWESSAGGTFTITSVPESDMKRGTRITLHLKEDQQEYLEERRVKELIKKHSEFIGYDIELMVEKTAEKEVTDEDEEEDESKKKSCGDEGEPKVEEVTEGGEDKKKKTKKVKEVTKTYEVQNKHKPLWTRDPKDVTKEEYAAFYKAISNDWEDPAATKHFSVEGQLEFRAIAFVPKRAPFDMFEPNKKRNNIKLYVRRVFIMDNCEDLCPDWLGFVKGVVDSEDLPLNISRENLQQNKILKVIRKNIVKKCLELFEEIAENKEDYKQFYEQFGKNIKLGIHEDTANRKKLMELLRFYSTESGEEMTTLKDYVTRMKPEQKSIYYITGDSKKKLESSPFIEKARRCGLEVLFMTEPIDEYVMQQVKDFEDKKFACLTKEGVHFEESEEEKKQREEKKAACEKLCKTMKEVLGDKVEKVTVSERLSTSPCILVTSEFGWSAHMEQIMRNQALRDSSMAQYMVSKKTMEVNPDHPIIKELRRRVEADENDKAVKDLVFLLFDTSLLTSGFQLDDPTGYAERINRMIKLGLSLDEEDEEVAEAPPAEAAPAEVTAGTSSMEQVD
Description: To evaluate in vitro the modulatory activity of CE, PR and CE caboxamides, a full-length recombinant Hsp90 from L. braziliensis (LbHsp90) was produced in E. coli BL21 DE3 harboring the pET28a_LbHsp90 coding for the C-terminal His-tagged target chaperone (genbank number: XP_001567804.1, full sequence is reported in Appendix B). Pratically, the plasmid pET28a_LbHsp90, kindly donated by professor J.C. Borges, was transformed in E. coli BL21 DE3 using the TransformAid Bacterial Transformation Kit (Thermo Fisher, Waltham, MA, USA). Subsequently, the obtained transformants were grown overnight in LB medium containing 30 μg mL^−1 kanamycin (LBkan30) and then inoculated in 1 L SB kan30 medium (Yeast extract 30 g L^−1, Tryptone 20 g L^−1, NaCl 10 g L^−1) at 37 °C and 220 rpm. When the OD600 reached 0.5–1, gene expression was induced by the addition of 2 mL of 1 M IPTG solution in water and the culture was shifted at 30 °C for 24 h. After cell harvesting by centrifugation (5000 rpm for 30 min), the cell pellet was resuspended in 20 mL of wash buffer (20 mM HEPES buffer, pH 7.0, 500 mM NaCl, 20 mM imidazole) and recombinant E. coli BL21DE3 cells were disrupted by ultrasonication. LbHsp90 was subsequently purified using a Nickel Sepharose 6 Fast Flow agarose resin (Ni-NTA) (GE Healthcare, Milan, Italy) as follows. Soluble protein fraction was separated from cell debris by centrifugation (10,000 rpm for 30min) after cell ultrasonication, and clear lysates were incubated with the Ni-NTA resin for 90 min at 4 °C under mild shaking and loaded onto a glass column (10 × 110 mm). The resin was then washed with 10mL of wash buffer and His-tagged LbHsp90 was eluted using a 3 step gradient (10 mL washing buffer containing 100, 200, and 300 mM imidazole, respectively) and dialyzed against 20 mM HEPES buffer (20 mM, pH 7.5), at 4 °C overnight. The protein content was measured using the Bio-Rad Protein Assay (Hercules, CA, USA) according to the Bradford method and the protein purity was verified by SDS-PAGE analysis (10% T, 2.6% C). It is worth noting that to avoid interferences with the assays described below, proteins were purified and conserved in HEPES buffer (20 mM, pH 7.5) in place of the standard PB-buffer. Reported data are the mean of two experiments run in duplicate.
Modulatory activity toward the ATPase cycle of LbHsp90 was determined using a Malachite Green Phosphate Assay Kit (Catalog Number MAK307, Sigma-Aldrich®, St. Louis, MO, USA). Analyses were run in a 96-well plate directly following the quantitative formation of a green complex between Malachite Green, molybdate, and free orthophosphate (Pi) produced by ATP hydrolysis catalyzed by the chaperone. Color formation from the reaction was measured on a plate reader at 620 nm. Briefly, the IC50 of CE and its derivatives were extrapolated from a set of dose-response curves obtained by calculating the amount of Pi produced by LbHsp90 in the presence of different compounds concentrations.
Reactions were run in HEPES buffer (20 mM, pH 7.5) containing 3 mM MgCl2 and 50 mM KCl in the presence of different compounds concentrations ([…]), LbHsp90 (7 μM) and ATP (25 mM) at 27 °C for 60 min. OD620 was measured 30 min after Malachite Green reactants addition.
LbHsp90 native activity was measured by conducting the reaction in the presence of just LbHsp90 and ATP and extrapolating the concentration of Pi obtained.
Three sets of control experiments, (1) ATP background hydrolysis, (2) compounds-related interferences and (3) protein-related background coloration, were run as follow: • (1) ATP (25 mM) incubated at 27 °C for 60 min • (2) Compounds (different concentrations) incubated with ATP (25 mM) at 27 °C for 60 min • (3) LbHsp90 (7 μM) at 27 °C for 60 min
The in vitro performances of CE, PR and the carboxamides 1–11 (Figure 4) as potential inhibitors of the Leishmania braziliensis Hsp90 were investigated using Sigma-Aldrich® Malachite Green Phosphate Assay Kit. […]

HMEC-1 = experiment: Cytotoxicity on HMEC-1 (MTT); type: cell-based, human; conditions: 72 h, MTT, read-out: Healthy Cell Lines IC50, HMEC-1
Procedure: as §3, §4, §5, §6

[2] = Homo sapiens, THP-1, PMA-differentiated, 72 h, MTT
[3] = Leishmania tropica, 72 h, 23 °C, MTT, read-out: Leishmania Promastigotes IC50, L. tropica
[4] = Leishmania infantum, 72 h, 23 °C, MTT, read-out: Leishmania Promastigotes IC50, L. infantum
[5] = 72 h, 23 °C, MTT; read-out: Leishmania Promastigotes IC50, L. tropica

| Compound | IC50 (LbHsp90) [nM] | IC50 (THP-1; [2]) [nM] | IC50 (L. tropica promastigotes; [3]) [nM] | IC50 (BMDM; Mus musculus, BMDM, MTT) [nM] | IC50 (HMEC-1; Homo sapiens, HMEC-1) [nM] | IC50 [1, 4] [nM] | melting point [°C] | IC50 (L. tropica promastigotes; [5]) [nM] | further results |
| --- | --- | --- | --- | --- | --- | --- | --- | --- | --- |
| COC(=O)[C@]1(C)CC[C@]2(C)CC[C@]3(C)C4=CC=C5C(=CC(=O)C(O)=C5C)[C@]4(C)CC[C@@]3(C)[C@@H]2C1 [PR, pristimerin, reference compound] | – | – | – | – | – | – | – | – | IC50 (L. tropica promastigotes; Leishmania tropica, 72 h, read-out: Leishmania Promastigotes IC50, L. tropica): 240 ± 40 nM; IC50 (BMDM; Mus musculus, BMDM): 1270 ± 90 nM; IC50 (THP-1; Homo sapiens, THP-1, 72 h): 1100 ± 350 nM; IC50 ([1]; Leishmania infantum, 72 h, read-out: Leishmania Promastigotes IC50, L. infantum): 260 ± 20 nM |
| CC1=C(O)C(=O)C=C2C1=CC=C1[C@@]2(C)CC[C@@]2(C)[C@@H]3C[C@](C)(C(=O)NCCCN4CCCCC4)CC[C@]3(C)CC[C@]12C [compound 2, (2R,4aS,6aS,12bR,14aS,14bR)-10-hydroxy-2,4a,6a,9,12b,14a-hexamethyl-11-oxo-N-(3-(piperidin-1-yl)propyl)-1,2,3,4,4a,5,6,6a,11,12b,13,14,14a,14b-tetradecahydropicene-2-carboxamide] | > 125000 | 1780 ± 480 | – | – | – | – | – | – | IC50 (L. tropica promastigotes; Leishmania tropica; 72 h, 23 °C, MTT; read-out: Leishmania Promastigotes IC50, L. tropica): 210 ± 40 nM; IC50 ([1]; Leishmania infantum; 72 h, 23 °C, MTT; read-out: Leishmania Promastigotes IC50, L. infantum): 260 ± 60 nM |
| CC1=C(O)C(=O)C=C2C1=CC=C1[C@@]2(C)CC[C@@]2(C)[C@@H]3C[C@](C)(C(=O)NCCC45CCCN4CCC5)CC[C@]3(C)CC[C@]12C [compound 4, (2R,4aS,6aS,12bR,14aS,14bR)-N-(2-(hexahydro-1H-pyrrolizin-7a-yl)ethyl)-10-hydroxy-2,4a,6a,9,12b,14a-hexamethyl-11-oxo-1,2,3,4,4a,5,6,6a,11,12b,13,14,14a,14b-tetradecahydropicene-2-carboxamide] | 48000 ± 3000 | 1890 ± 430 | 200 ± 40 | 2590 ± 710 | 350 ± 160 | 250 ± 80 | 235.7 to 237 | – | – |
| CC1=C(O)C(=O)C=C2C1=CC=C1[C@@]2(C)CC[C@@]2(C)[C@@H]3C[C@](C)(C(=O)NCCCNc4ccnc5cc(Cl)ccc45)CC[C@]3(C)CC[C@]12C [compound 7, (2R,4aS,6aS,12bR,14aS,14bR)-N-(3-((7-chloroquinolin-4-yl)amino)propyl)-10-hydroxy-2,4a,6a,9,12b,14a-hexamethyl-11-oxo-1,2,3,4,4a,5,6,6a,11,12b,13,14,14a,14b-tetradecahydropicene-2-carboxamide] | > 125000 | 480 ± 170 | 150 ± 40 | 1780 ± 530 | 130 ± 10 | 200 ± 10 | 211.1 to 215 | – | – |
| CC1=C(O)C(=O)C=C2C1=CC=C1[C@@]2(C)CC[C@@]2(C)[C@@H]3C[C@](C)(C(=O)NCSS(C)(=O)=O)CC[C@]3(C)CC[C@]12C [compound 8, S-(((2R,4aS,6aS,12bR,14aS,14bR)-10-hydroxy-2,4a,6a,9,12b,14a-hexamethyl-11-oxo-1,2,3,4,4a,5,6,6a,11,12b,13,14,14a,14b-tetradecahydropicene-2-carboxamido)methyl) methanesulfonothioate] | 67000 ± 3000 | 2510 ± 870 | 2000 to 4000 | 13900 ± 2780 | 3030 ± 10 | – | – | 3440 ± 1120 | – |
| (6bS,8aS,11R,12aR,12bS,14aR)-3-hydroxy-4,6b,8a,11,12b,14a-hexamethyl-11-(((((2R,3R,4R,5S,6R)-2,4,5-trihydroxy-6-(hydroxymethyl)tetrahydro-2H-pyran-3-yl)amino)oxy)carbonyl)-7,8,8a,9,10,11,12,12a,12b,13,14,14a-dodecahydropicen-2(6bH)-one [compound 11] | 47000 ± 5000 | – | – | – | – | – | – | 15200 ± 2710 | IC50 (BMDM; MTT): > 15900 nM; IC50 (HMEC-1): > 14200 nM; IC50 (THP-1; PMA-differentiated, 72 h, MTT): > 15900 nM; IC50 ([1]; 72 h, 23 °C, MTT; read-out: Leishmania Promastigotes IC50, L. infantum): 14400 ± 1960 nM |
